Laboratory results taken from patent publication US8748456B2, “Pyrazolo piperidine derivatives as NADPH oxidase inhibitors” (Genkyotex SA, priority 2010, dated 2014).

Columns and labels:
Type in all cases: cell-based, human
NOX [1] = assay: Nitroblue tetrazolium (NBT) test of intracellular and extracellular superoxide in cells; details: DPI 10 μM, NOX activity as % of the activity in control cells, 'usually'
Procedure: Intracellular and extracellular superoxide was measured by a colorimetric technique using a quantitative nitroblue tetrazolium (NBT) test. SOD-inhibitable conversion of NBT to formazan, a fine blue precipitate, in the presence of superoxide anion was measured using Fluostar Optima spectrometer (BMG labtech). Following incubation with appropriate stimuli, cells were trypsinized (1× Trypsin-EDTA), collected by centrifugation, and washed with PBS to remove medium. 5×10^5 cells were plated on 48-well plates and incubated in Hank's balanced salt solution containing 0.5 mg/mL NBT with or without 800 U/mL SOD in the presence or absence of compounds according to the invention. As a control, DPI was included at a final concentration of 10 μM. After 2.5 h, cells were fixed and washed with methanol to remove non reduced NBT. The reduced formazan was then dissolved in 230 μl of 2M potassium hydroxide and in 280 μl of dimethylsulfoxide. The absorption was measured at 630 nm. For calculation, the absorbance at 630 nm was normalized for each individual well. The mean of the four blank values was subtracted from each corrected value for each time point. NOX activities were expressed as % of the activity in control cells. Residual activity of DPI-treated cells was usually <10%.

NOX [2] = assay: Chemiluminescence (luminol) measurement of ROS in cells; details: NOX activity as % of the activity in control cells, 'usually'
Procedure: ROS was measured using the chemiluminescent probe luminol. Cells were cultured and plated as for Amplex Red except that the Amplex Red agent was replaced by 10 μg/mL luminol (Sigma 09235). Light emission was recorded continuously at 37° C. for 60 minutes using the luminescence function of the FluoStar Optima fluorescent plate reader. The mean of the four blank values was subtracted from each corrected value for each time point. NOX activities were expressed as % of the activity in control cells. Residual activity of DPI-treated cells was usually <10%.

NOX [3] = tested on: T1, NOX; assay: Amplex Red measurement of NOX activity (extracellular hydrogen peroxide) in DMSO-differentiated HL60 cells; details: DPI 10 μM, NOX activity as % of the activity in control cells, 'usually'
T1 construct: rows headed: Residual activity of DPI-treated cells; other: Amplex Red; DPI 10 μM; NOX activity as % of the activity in control cell
Procedure: Human acute myeloid leukemia cell line HL-60 was cultured in RPMI 1640 (Invitrogen) supplemented with 10% heat-inactivated calf serum, 2 mM glutamine, 100 U/mL penicillin (Sigma), and 100 μg streptomycin (Sigma) at 37° C. under a humidified atmosphere of 5% CO2. HL60 differentiation to the neutrophil phenotype was triggered by adding Me2SO (final concentration 1.25% v/v for 6 days) to the culture medium.
Extracellular hydrogen peroxide was measured using Amplex UltraRed (Molecular Probes). Cells were trypsinized (1× Trypsin-EDTA), collected by centrifugation, and resuspended in HBSS supplemented with 1% glucose. Cells were seeded into black 96-well plates at a density of 50′000 cells in 200 μl testing buffer (HBSS 1% glucose containing 0.005 U/mL horseradish peroxidase (Roche) and 50 μM Amplex Red in the presence or absence of compounds according to the invention. As a control, DPI was included at a final concentration of 10 μM The plates were placed in the fluorescent Optima Fluorescent plate reader and kept at 37° C. during 20 min. Fluorescence was measured for […] with excitation and emission wavelengths of 544 nm and 590 nm respectively. NOX activities were expressed as % of the activity in control cells. […]
The Table 2 below summarizes the percentage of inhibition of NOX activity as measured by Amplex Red using DMSO-differentiated HL60 cells as described above: […]

NOX [4] = tested on: T2, NOX; assay: H2DCF-DA (DCF fluorescence) in HUVEC stimulated with TGF-β; details: NOX activity as % of the activity in control cells, 'usually'
T2 construct: rows headed: Residual activity of DPI-treated cells; other: H2DCF-DA, HUVEC + TGF-β; NOX activity as % of the activity in control ce
Procedure: HUVEC are cultured in endothelial basal medium supplemented with hydrocortisone (1 μg/mL, CalbioChem), bovine brain extract (12 μg/mL), gentamicin (50 μg/mL, CalbioChem), amphotericin B (50 ng/mL, CalBioChem EGF (10 ng/mL, and 10% FCS until the fourth passage. When the fifth passage was started, cells were cultured with a lower concentration of FCS (2%) in the absence of EGF, if not indicated otherwise. All experiments were done with cells of the fifth passage. The cells were incubated with OxLDL (oxidized low-density lipoprotein) or its buffer as control for 24 h, before detection of O2^− formation.
HUVEC were plated on coverslips and made quiescent overnight in 0.5% BSA before stimulation with TGF-β. Cells were loaded for 10 minutes with 5 μM CM-H2DCFDA in phenol-red-free medium in the dark and then treated with TGF-β (R&D Systems) in the presence or absence of compounds according to the invention. Cells were then visualized by immunofluorescence microscopy after fixation and staining of the nuclei with DAPI or examined live using confocal microscopy. DCF fluorescence was visualized at an excitation wavelength of 488 nm and emission at 515 to 540 nm. […] For calculation, the absorbance at […] was normalized to absorbance at […] for each individual well. […] NOX activities were expressed as % of the activity in control cells. […]

Measured: Residual activity of DPI-treated cells

c1ccc([I+]c2ccccc2)cc1 [DPI, Diphenyl-iodonium]
< 10%: all assays above
